pEC50, pIC50: −log10 of the molar value. Like-named read-outs stand apart in the source and are kept apart here.

The results in this text go back to patent US20130289083A1, “IDO Inhibitors” (priority 2007, published 2013).

In test [1] the target is human IDO (Homo sapiens, UniProt P14902). Put plainly: Cell based IDO/kynurenine assay in IDO-293-T-Rex cells. Particulars: kynurenine production, read-out: hIDO EC50. In a few lines:
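293-T-REx cells stably carrying doxycycline-inducible human or murine IDO were incubated with inhibitors in induction medium for 16 h at 37° C. Medium was TCA-treated at 60° C and reacted with p-dimethylaminobenzaldehyde. Kynurenine was quantified by absorbance at 480 nm.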

Test [2] deals with T1, murine IDO (Mus musculus, UniProt P28776).
T1 construct: expressed in transfected cells; host or cells: 293-T-REx cells (Invitrogen), doxycycline-inducible CMV-tet promoter
The test can be described thus: Cell based IDO/kynurenine assay in 293-T-Rex cells expressing murine IDO. As to conditions: cells expressing murine IDO, read-out: mIDO EC50. On the procedure: Transfected cells were selected in DBZ medium (DMEM, 10% FBS, 1× Penicillin+Streptomycin, 2 mM L-glutamine, 5 μg/mL blasticidin and 25 μg/ml Zeocin) at 37° C. with a 5% CO2 in air atmosphere. Individual clones were isolated by limiting dilution cloning from these populations.
The cells incubated in Neutral medium serve as negative control of the assay. The cells incubated in Induction medium and without inhibitor serve as the positive control of the assay. The incubation is carried out for 16 h at 37° C. in a cell culture incubator. 200 μL of medium are transferred to U-bottom polypropylene 96-well plates containing 25 μL of 30% TCA, incubated 30 minutes at 60° C. and centrifuged at 3400 g for 5 minutes. 150 μL of the clear supernatant is transferred to a polystyrene 96-well plate containing 50 μL of 4% (w/v) of p-dimethylaminobenzaldehyde in acetic acid, incubated for 10 min. Kynurenine concentration is determined by measuring the absorbance at 480 nm.

Test [3] has as its target purified human IDO protein (Homo sapiens, UniProt P14902). The test can be described thus: Enzymatic IDO assay (kynurenine production, absorbance 480 nm). As to conditions: enzymatic activity.
[4] abbreviates: Table 15, 293T cells expressing human IDO.
[5] abbreviates: hIDO IC50, Table 15, recombinant human IDO.
[6] abbreviates: Table 16, 293T cells expressing human IDO.
[7] abbreviates: hIDO IC50, Table 16, recombinant human IDO.

T1 sequence (P28776 whole entry): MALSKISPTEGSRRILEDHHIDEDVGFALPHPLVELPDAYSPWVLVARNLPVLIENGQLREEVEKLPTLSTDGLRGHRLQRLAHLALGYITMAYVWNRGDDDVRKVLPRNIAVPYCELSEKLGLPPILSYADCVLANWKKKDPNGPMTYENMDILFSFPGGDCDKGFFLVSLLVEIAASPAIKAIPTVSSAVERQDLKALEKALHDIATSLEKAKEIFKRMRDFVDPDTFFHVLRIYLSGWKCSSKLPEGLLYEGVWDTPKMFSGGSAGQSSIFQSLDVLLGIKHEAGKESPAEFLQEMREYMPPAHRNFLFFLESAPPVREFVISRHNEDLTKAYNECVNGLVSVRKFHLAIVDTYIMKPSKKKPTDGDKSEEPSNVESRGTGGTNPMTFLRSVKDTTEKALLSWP
Sequence of human IDO (P14902 whole entry): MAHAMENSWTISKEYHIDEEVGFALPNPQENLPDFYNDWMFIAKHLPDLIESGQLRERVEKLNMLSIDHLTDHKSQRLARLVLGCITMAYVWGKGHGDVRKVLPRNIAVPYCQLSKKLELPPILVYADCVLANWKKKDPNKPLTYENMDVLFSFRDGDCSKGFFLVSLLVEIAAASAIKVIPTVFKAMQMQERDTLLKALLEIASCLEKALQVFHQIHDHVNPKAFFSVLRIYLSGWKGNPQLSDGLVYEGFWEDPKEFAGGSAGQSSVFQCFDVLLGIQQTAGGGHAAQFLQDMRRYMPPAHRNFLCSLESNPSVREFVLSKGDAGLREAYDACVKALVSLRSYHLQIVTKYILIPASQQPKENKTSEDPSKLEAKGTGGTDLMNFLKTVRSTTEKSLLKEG
Sequence of purified human IDO protein (P14902 whole entry P110S/E119G): as the sequence (P14902 whole entry) above, with P110S, E119G counted along it

For `NOCc1cc(Cl)ccc1-c1ccc(Cl)cc1` [compound 1892, O-((4,4′-dichlorobiphenyl-2-yl)methyl)hydroxylamine], the pEC50 in test [1] (setting [4]) and in test [2] (Table 15) was above 5.00 throughout. The negative logarithm of the IC50 (pIC50) (commonly the negative decadic logarithm of the IC50, by convention in mol/L) in test [3] (setting [5]) is above 5.00.

For the molecule `NOCc1ccccc1-c1ccc(Cl)cc1` [compound 1879, O-((4′-chlorobiphenyl-2-yl)methyl)hydroxylamine], the pEC50 – broadly, the negative decadic logarithm of the EC50, by convention in mol/L – in test [1] (setting [4]) was above 5.00; in test [2] (Table 15), 4.00 to 5.00. Also, the pIC50 in test [3] (setting [5]) is above 5.00.

Regarding `NOCc1csc2ccc(Cl)cc12` [compound 1743, O-((5-chlorobenzo[b]thiophen-3-yl)methyl)hydroxylamine], the values for the pEC50 in test [1] (setting [4]) and in test [2] (Table 15) were above 5.00 and 4.00 to 5.00, respectively. In test [3] (setting [5]), the negative-log IC50 (pIC50) is above 5.00.

As for `COc1ccc(-c2cccc(CON)c2)cc1` [compound 1882, O-((4′-methoxybiphenyl-3-yl)methyl)hydroxylamine], the figures for the pEC50 in test [1] (setting [4]) and in test [2] (Table 15) were above 5.00 and 4.00 to 5.00, respectively. For the same molecule, the pIC50 in test [3] (setting [5]) was above 5.00.

Take `NOCc1ccccc1Nc1ccccc1` [compound 1871, 2-(aminooxymethyl)-N-phenylaniline]: the pEC50 is above 5.00 in test [1] (setting [4]) and 4.00 to 5.00 in test [2] (Table 15). Moreover, the negative-log IC50 (pIC50) in test [3] (setting [5]) is above 5.00.

As to `NOCc1ccc(F)cc1` [compound 774, O-(4-fluorobenzyl)hydroxylamine], the pEC50 in test [1] (setting [6]) and in test [2] (Table 16) was above 5.00 throughout. Besides, in test [3] (setting [7]), the pIC50 is above 5.00.

`NOCc1ccccc1NCc1ccccc1` [compound 1662, 2-(aminooxymethyl)-N-benzylaniline]: the figures for the negative logarithm of the EC50 (pEC50) in test [1] (setting [4]) and in test [2] (Table 15) were above 5.00 and 3.00 to 4.00, respectively. The pIC50 in test [3] (setting [5]) was above 5.00.

Take `COc1ccc(-c2ccc(Cl)cc2CON)cc1` [compound 1914, O-((4-chloro-4′-methoxybiphenyl-2-yl)methyl)hydroxylamine]: the pEC50 in test [1] (setting [4]) is above 5.00; in test [2] (Table 15) it was 4.00 to 5.00. Also, the pIC50 in test [3] (setting [5]) is above 5.00.

Regarding `NOCc1cccc(N)c1` [compound 1824, 3-(aminooxymethyl)aniline], the pEC50 in test [1] (setting [4]) was above 5.00; in test [2] (Table 15), 4.00 to 5.00. In addition, in test [3] (setting [5]), the pIC50 was 4.00 to 5.00.

Consider `COC(=O)c1ccc(CON)cc1` [compound 1684, methyl 4-(aminooxymethyl)benzoate], for which the pEC50 in test [1] (setting [6]) was above 5.00; in test [2] (Table 16) it was 4.00 to 5.00. The pIC50 in test [3] (setting [7]) is above 5.00.

For `NOCc1cccc(-c2ccc(Cl)cc2)c1` [compound 1878, O-((4′-chlorobiphenyl-3-yl)methyl)hydroxylamine], the values for the pEC50 in test [1] (setting [4]) and in test [2] (Table 15) were above 5.00 and 4.00 to 5.00, respectively. For the same molecule, the pIC50 in test [3] (setting [5]) is above 5.00.

Consider `NOCCOc1ccccc1` [compound 1679, O-(2-phenoxyethyl)hydroxylamine], for which the pEC50 in test [1] (setting [6]) and in test [2] (Table 16) was above 5.00 throughout. Besides, in test [3] (setting [7]), the pIC50 was above 5.00.

As for `Cc1ccc(-c2cccc(CON)c2)cc1` [compound 1881, O-((4′-methylbiphenyl-3-yl)methyl)hydroxylamine], the pEC50 is above 5.00 in test [1] (setting [4]) and 4.00 to 5.00 in test [2] (Table 15). The pIC50 in test [3] (setting [5]) is 4.00 to 5.00.

For the molecule `C=CCC(ON)c1cccc([N+](=O)[O-])c1` (centres unmarked) [compound 1755, O-(1-(3-nitrophenyl)but-3-enyl)hydroxylamine], the pEC50 in test [1] (setting [6]) and in test [2] (Table 16) was above 5.00 each time. The pIC50 in test [3] (setting [7]) is above 5.00.

In the case of `NOC1CCCCO1` (centres unmarked) [compound 1669, O-(tetrahydro-2H-pyran-2-yl)hydroxylamine], the negative-log EC50 (pEC50) in test [1] (setting [6]) and in test [2] (Table 16) was above 5.00 throughout. For the same molecule, the negative-log IC50 (pIC50) in test [3] (setting [7]) was 4.00 to 5.00.

On to `NOCc1ccc(C(F)(F)F)cc1` [compound 934, O-(4-(trifluoromethyl)benzyl)hydroxylamine], for which the pEC50 in test [1] (setting [6]) and in test [2] (Table 16) was above 5.00 throughout. For the same molecule, the pIC50 in test [3] (setting [7]) is above 5.00.

`COc1ccc(OC)c(CON)c1` [compound 1771, O-(2,5-dimethoxybenzyl)hydroxylamine]: the pEC50 in test [1] (setting [4]) and in test [2] (Table 15) was above 5.00 each time. In addition, the negative-log IC50 (pIC50) in test [3] (setting [5]) is above 5.00.

Turning to `NOCc1cc(Cl)ccc1-c1ccccc1Cl` [compound 1915, O-((2′,4-dichlorobiphenyl-2-yl)methyl)hydroxylamine], the results for the pEC50 in test [1] (setting [4]) and in test [2] (Table 15) were 4.00 to 5.00 and 3.00 to 4.00, respectively. Also, the pIC50 in test [3] (setting [5]) is above 5.00.

Regarding `NOCc1ccccc1` [compound 1666, O-benzylhydroxylamine], the pEC50 in test [1] (setting [6]) and in test [2] (Table 16) was above 5.00 throughout. For the same molecule, the pIC50 in test [3] (setting [7]) was above 5.00.

Regarding `NOCCc1cccc([N+](=O)[O-])c1` [compound 1752, O-(3-nitrophenethyl)hydroxylamine], the pEC50 in test [1] (setting [6]) and in test [2] (Table 16) was above 5.00 each time. The negative logarithm of the IC50 (pIC50) in test [3] (setting [7]) was above 5.00.

Turning to `NOCc1cccc(C(F)(F)F)c1` [compound 1775, O-(3-(trifluoromethyl)benzyl)hydroxylamine], the negative-log EC50 (pEC50) in test [1] (setting [6]) and in test [2] (Table 16) was above 5.00 in each case. In addition, the pIC50 in test [3] (setting [7]) was above 5.00.

As to `NOCc1cccc(CON)c1` [compound 1823, O,O′-(1,3-phenylenebis(methylene))bis(hydroxylamine)], the values for the pEC50 in test [1] (setting [6]) and in test [2] (Table 16) were 4.00 to 5.00 and above 5.00, respectively. Moreover, the pIC50 in test [3] (setting [7]) was 4.00 to 5.00.

Regarding `NOCc1ccccc1CON` [compound 1822, O,O′-(1,2-phenylenebis(methylene))bis(hydroxylamine)], the pEC50 in test [1] (setting [6]) and in test [2] (Table 16) was 4.00 to 5.00 each time. In test [3] (setting [7]), the pIC50 was 4.00 to 5.00.

Turning to `COC(=O)CCC(ON)c1ccccc1` (centres unmarked) [compound 1880, methyl 4-(aminooxy)-4-phenylbutanoate], the pEC50 in test [1] (setting [4]) is above 5.00; in test [2] (Table 15), 3.00 to 4.00. Also, the negative logarithm of the IC50 (pIC50) in test [3] (setting [5]) is above 5.00.

Consider `NOCc1ccc2ncccc2c1` [compound 1741, O-(quinolin-6-ylmethyl)hydroxylamine], for which the pEC50 in test [1] (setting [4]) and in test [2] (Table 15) was above 5.00 in each case. In addition, the pIC50 in test [3] (setting [5]) is 4.00 to 5.00.

As for `NOCc1cccc([N+](=O)[O-])c1` [compound 317, O-(3-nitrobenzyl)hydroxylamine], the pEC50 in test [1] (setting [6]) is above 5.00; in test [1] (293T cell line stably expressing human IDO, values reported in ranges), above 4.70; in test [2] (Table 16), above 5.00. In addition, the pIC50 in test [3] (setting [7]) is above 5.00; in test [3] (hIDO IC50, recombinant human IDO, values reported in ranges), above 4.70.

`NOCc1c(F)c(F)c(F)c(F)c1F` [compound 1667, O-(perfluorobenzyl)hydroxylamine]: the pEC50 in test [1] (setting [6]) was above 5.00; in test [2] (Table 16), 4.00 to 5.00. For the same molecule, in test [3] (setting [7]), the pIC50 is 4.00 to 5.00.

For `NOCc1cc(F)cc(Cl)c1` [compound 1660, O-(3-chloro-5-fluorobenzyl)hydroxylamine], the pEC50 in test [1] (setting [4]) and in test [2] (Table 15) was above 5.00 throughout. In test [3] (setting [5]), the pIC50 was above 5.00.

As for `CNC(=O)C(ON)c1ccccc1` (centres unmarked) [compound 1897, 2-(aminooxy)-N-methyl-2-phenylacetamide], the pEC50 in test [1] (setting [4]) and in test [2] (Table 15) was above 5.00 in each case. For the same molecule, the pIC50 in test [3] (setting [5]) was above 5.00.

`NOCc1ccc(F)c(Cl)c1` [compound 1673, O-(3-chloro-4-fluorobenzyl)hydroxylamine]: the pEC50 in test [1] (setting [6]) is above 5.00; in test [2] (Table 16), below 3.00. For the same molecule, the pIC50 in test [3] (setting [7]) was 3.00 to 4.00.

As for `NOCc1ccccn1` [compound 1739, O-(pyridin-2-ylmethyl)hydroxylamine], the pEC50 in test [1] (setting [4]) and in test [2] (Table 15) was above 5.00 in each case. The negative logarithm of the IC50 (pIC50) in test [3] (setting [5]) is 4.00 to 5.00.

In the case of `NOc1cccc2ccccc12` [compound 1903, O-(naphthalen-1-yl)hydroxylamine], the pEC50 in test [1] (setting [4]) and in test [2] (Table 15) was 4.00 to 5.00 in each case. Further, the pIC50 in test [3] (setting [5]) was above 5.00.

Regarding `NOCc1cccc(Nc2ccccc2)c1` [compound 1829, 3-(aminooxymethyl)-N-phenylaniline], the pEC50 in test [1] (setting [4]) and in test [2] (Table 15) was above 5.00 each time. Further, the pIC50 in test [3] (setting [5]) is above 5.00.

In the case of `Cc1cccc(CON)c1` [compound 1692, O-(3-methylbenzyl)hydroxylamine], the pEC50 in test [1] (setting [6]) is above 5.00; in test [2] (Table 16), 4.00 to 5.00. In addition, the negative-log IC50 (pIC50) in test [3] (setting [7]) is 4.00 to 5.00.

`COc1ccc(CON)cc1` [compound 1815, O-(4-methoxybenzyl)hydroxylamine]: the pEC50 was above 5.00 in test [1] (setting [6]) and 4.00 to 5.00 in test [2] (Table 16). In test [3] (setting [7]), the pIC50 was 4.00 to 5.00.

For `N#Cc1cccc(CON)c1` [compound 1873, 3-(aminooxymethyl)benzonitrile], the pEC50 in test [1] (setting [4]) and in test [2] (Table 15) was above 5.00 each time. In test [3] (setting [5]), the pIC50 was above 5.00.

For the molecule `NOCc1cccc(I)c1` [compound 1816, O-(3-iodobenzyl)hydroxylamine], the figures for the negative logarithm of the EC50 (pEC50) in test [1] (setting [6]) and in test [2] (Table 16) were above 5.00 and 4.00 to 5.00, respectively. Moreover, the pIC50 in test [3] (setting [7]) was above 5.00.
